One compound from ChEMBL document CHEMBL5390228, “Unnatural Endotype B PPAPs as Novel Compounds with Activity against Mycobacterium tuberculosis” (J Med Chem, 2023) can be followed below.

The subject of the assay is Mycobacterium tuberculosis. As to the kind of experiment: Antimicrobial activity in INH-resistant Mycobacterium tuberculosis ATCC 35822 infected in human Primary macrophage cells assessed as reduction in intracellular growth of bacteria incubated for 4 days by CFU assay. In kind it is functional, organism-based. Conditions: ATCC 35822, Primary macrophage, 96 h.

Each structure is given as a SMILES string.

As for `C=CC[C@@]12C[C@H](CC=C(C)C)C(C)(C)[C@@](CC=C)(C(=O)C(C(C)=O)=C1[O-])C2=O.[Na+]`, the IC50 amounted to 15.9 µM.

As a reminder, the IC50 is the concentration that gives 50% inhibition.
